{"source": "patent US6291496A", "about": "“Treating cancers associated with overexpression of class I family of receptor tyrosine kinases” (priority 1999, dated 2001)", "key": {"[1]": {"test_system": "HER-2/neu promoter", "assay": "transient transfection assay, human HER-2/neu promoter construct ligated to luciferase, 184B5/HER cells", "format": "cell-based", "settings": "0-25 μM, 24 hours, FIG. 1", "experimental": "To determine whether PPARγ ligands inhibit HER-2/neu promoter activity, a transient transfection assay was performed. 184B5/HER cells were transfected with 1.8 μg of a human HER-21neu promoter construct ligated to luciferase (-1571/--24) and 0.2 μg pSVβgal (Promega Corp., Madison Wis.). The HER-2/neu promoter (-1571/--24) is described in Hudson, L. G. et al, J. Biol. Chem. 265, 4389-4393 (3/90), the whole of which is incorporated herein by reference. The promoter constructs are described in Hudson, L. G., et al, Cell 62, 1165-1175(1990). 184B5/HER cells were seeded at a density of5×10^4 cells well in 6-well dishes and grown to 50-60% confluence. For each well, 2 μg of […] DNA were introduced into cells using 8 μg of LIPOFECTAMINE (Life Technologies, Inc., Grand Island, N.Y.) as per the manufacturer's instructions. Following transfection, the cells were treated with ciglitazone (0, 5, 10, 15, 20 and 25 μM) or 15d-PGJ2 (0, 5, 10, 15, 20 and 25 μM) for 24 hours.\nThe activities of luciferase and β-galactosidase were measured in cellular extract as described in Mestre, J. R. et al, Cancer Res. 57, 1081-1085 (1997)."}, "[2]": {"test_system": "head and neck carcinoma where EGFR is overexpressed", "assay": "Example VII: head and neck carcinoma", "format": "in vivo, human", "settings": "after the 12 weeks of CETUXIMAB and cisplatin, oral 5 mg/kg twice daily for 12 weeks", "experimental": "Concurrently cisplatin is infused every four weeks at 60 mg/m^2."}, "[3]": {"test_system": "EGFR in 184B5 mammary epithelial cells", "assay": "immunoblot for EGFR in 184B5 cells", "format": "cell-based, human", "settings": "ciglitazone 5-30 μM or 15-d-PGJ2 5, 10 μM, 24 hours", "experimental": "The cells used were 184B5 cells. The 184B5 cell line was obtained from a collaborator and is an immortalized but non-tumorigenic human breast epithelial cell line that was established from a reduction mammaplasty and is described in Stampler, M. R, et al, Proc. Natl. Acad. Sci. USA 82, 2394-2398 (1985).\n184B5 cells were maintained in MEM-KBM mixed in a ratio of 1:1 (basal medium) containing epidermal growth factor (10 ng/ml), hydrocortisone (0.5 μg/ml), transferrin (10 μg/ml), gentamicin (5 μg/ml), and insulin (10 μg/ml) (growth medium). 184B5 cells were grown to 60% confluence, trypsinized with 0.05% trypsin-2 mM ethylenediaminotetraacetic acid and plated for experimental use.\n184B5 cells were treated with vehicle (0.01% dimethyl sulfoxide), ciglitazone (5, 10, 20, 30 μM) or 15-d-PGJ2 (5, 10 μM) for 24 hours. Cell lysates were prepared in RIPA buffer. Lysates were sonicated for 20 seconds on ice and centrifuged at 10,000×g for 10 minutes to sediment the particulate material. The protein concentration of the supernatant was measured by the method of Lowry,. O. H., et al, J. Biol. Chem. 193, 265-275 (1951). Cellular lysate protein (100 μg/lane) was loaded onto a 10% SDS-polyacrylamide gel, electrophoresed and subsequently transferred onto a nitrocellulose membrane(Schleicher & Schuell Keene, N. H.). […]"}, "[4]": {"test_system": "Stage IV EGFR positive breast cancer tumors", "assay": "Example VIII: breast cancer with Stage IV EGFR positive tumors", "format": "in vivo, human", "settings": "oral 5 mg/kg twice daily in combination with CETUXIMAB and Taxol"}, "[5]": {"test_system": "HER-2/neu mRNA", "assay": "Northern blotting for HER-2/neu mRNA in 184B5/HER cells", "format": "cell-based, human", "settings": "25 μM ciglitazone or 20 μM 15-d-PGJ2", "experimental": "Northern blotting was performed to evaluate whether PPARγ ligands decrease levels of HER-2/neu mRNA. 184B5/HER cells were treated with vehicle (0.01% dimethyl sulfoxide), 25 μM ciglitazone or 20 μM 15-d-PGJ2. Total cellular RNA was isolated from cell monolayers using an RNA isolation kit from Qiagen Inc. 10 μg of RNA was added to each lane. The 10 μg of total cellular RNA per lane were electrophoresed in a formaldehyde-containing 1.2% agarose gel and transferred to nylon-supported membranes. The blot was hybridized with probes that recognized HER-2/neu mRNA (Santa Cruz Biotechnology, Inc., Santa Cruz, Calif.) and 18S rRNA cDNA (Ambion, Inc., Austin, Tex.)."}, "[6]": {"test_system": "HER-2/neu in BT474 cells", "assay": "immunoblot for HER-2/neu in BT474 cells", "format": "cell-based, human", "settings": "25 μM ciglitazone", "description": "The 184B5/HER cell line was obtained from a collaborator and was derived by stably transfecting 184B5 cells with a mutationally activated HER-2/neu oncogene; these cells form rapidly growing tumors when injected into athymic nude mice. The 184B5/HER cell line is described in Pierce, J. H., et al., Oncogene 6, 1189-1194 (1991). The BT-474 cell line is a human breast cancer adenocarcinoma cell line which overexpresses HER-2/neu, and was obtained from the American Type Culture Collection (Manassas, Va.) and bears accession number ATCC HBT-20.\n184B5/HER cells were maintained in MEM-KBM mixed in a ratio of 1:1 (basal medium) containing epidermal growth factor (10 ng/ml), hydrocortisone (0.5 μg/ml), transferrin (10 μg/ml), gentamicin (5 μg/ml) and insulin (10 μg/ml) (growth medium). […] cells were grown to 60% confluence, trypsinized with 0.05% trypsin-2 mM ethylenediaminotetraacetic acid, and plated for experimental use. […]\n184B5/HER cells were treated with vehicle (0.01% dimethylsulfoxide), 25 μM ciglitazone (Biomol, Plymouth Meeting, Pennsylvania) or 20 μM 15-d-PGJ2 (Biomol, Plymouth Meeting, Pennsylvania) for 24 hours. […] The protein concentration of the supernatant was measured by the method of Lowry, O. H., et al, J. Biol. Chem. 193, 265-275 (1951). […]"}}}
{"smiles": "CC1(COc2ccc(CC3SC(=O)NC3=O)cc2)CCCCC1", "note": "(stereo not drawn) [ciglitazone]", "values": [{"measurement": "HER-2/neu promoter activity (luciferase normalized to β-galactosidase)", "setting": "[1]", "result": "inhibited HER-2 neu promoter activity in a dose-dependent fashion"}, {"measurement": "tumor burden", "setting": "[2]", "result": "further reduced tumor burden"}, {"measurement": "amounts of EGFR (immunoblot)", "setting": "[3]", "result": "decreased amounts of EGFR"}, {"measurement": "tumor burden", "setting": "[4]", "result": "reduced tumor burden"}, {"measurement": "amounts of HER-2/neu mRNA (Northern blot)", "setting": "[5]", "result": "decrease amounts of HER-2/neu mRNA"}, {"measurement": "amounts of HER-2/neu (immunoblot)", "setting": "[6]", "result": "decreased amounts of HER-2/neu"}]}
